Reference: paper PMC10932281, “A Combination of β-Aescin and Newly Synthesized Alkylamidobetaines as Modern Components Eradicating the Biofilms of Multidrug-Resistant Clinical Strains of Candida glabrata” (International Journal of Molecular Sciences, 2024)
In brackets after ≈: the same amount, converted by molar mass.

Tests used:
Format in all cases: cell-based, Candida glabrata
[1] = system: C. glabrata 2586 clinical strain; assay: MIC90/MFC, EUCAST broth microdilution; conditions: Nakaseomyces glabratus; for MFC: read-out: MFC; for MIC90: read-out: MIC90
C. glabrata 2853 [2] = assay: FICI checkerboard, β-aescin with antifungal drugs; conditions: for FICI: combination with β-aescin
C. glabrata 2586 [3] = assay: FICI checkerboard, β-aescin with antifungal drugs
C. glabrata ATCC 90030 [4] = assay: FICI checkerboard, β-aescin with antifungal drugs; conditions: for FICI: combination with β-aescin
C. glabrata ATCC 90030 [5] = assay: MIC90/MFC, EUCAST broth microdilution; conditions: Nakaseomyces glabratus, ATCC90030, ATCC 90030; for MFC: read-out: MFC; for MIC90: read-out: MIC90
C. glabrata ATCC 90030 [6] = assay: Interaction of AABs (3 µM) with antifungal agents, modified checkerboard; conditions: for Multiplicity factor (MF) with C9: C9 3 µM, |MF| = MIC90 alone/MIC90 with AAB; for MIC90 of antimycotic combined with C9: C9 at constant 3 µM; for Multiplicity factor (MF) with C11: C11 3 µM; for MIC90 of antimycotic combined with C11: C11 at constant 3 µM; for Multiplicity factor (MF) with C13: C13 3 µM; for MIC90 of antimycotic combined with C13: C13 at constant 3 µM; for Multiplicity factor (MF) with C15: C15 3 µM
[7] = system: C. glabrata 2853 clinical strain; assay: MIC90/MFC, EUCAST broth microdilution; conditions: Nakaseomyces glabratus; for MFC: read-out: MFC; for MIC90: read-out: MIC90
[8] = system: C. glabrata strains (ATCC 90030, 2586, 2853); assay: Interaction of AABs with antifungal agents, statements for all tested strains together; conditions: all of the tested C. glabrata strains; AABs 3 µM
C. glabrata 2586 [9] = assay: Interaction of AABs (3 µM) with antifungal agents, modified checkerboard; conditions: for Multiplicity factor (MF) with C9: C9 3 µM; for Multiplicity factor (MF) with C11: C11 3 µM; for MIC90 of antimycotic combined with C11: C11 at constant 3 µM; for Multiplicity factor (MF) with C13: C13 3 µM; for MIC90 of antimycotic combined with C13: C13 at constant 3 µM; for Multiplicity factor (MF) with C15: C15 3 µM
C. glabrata 2853 [10] = assay: as above; conditions: for Multiplicity factor (MF) with C9: C9 3 µM; for MIC90 of antimycotic combined with C9: C9 at constant 3 µM; for MIC90 of antimycotic combined with C9 / MIC90 of antimycotic combined with C11 / MIC90 of antimycotic combined with C13 / MIC90 of antimycotic combined with C15: dilutions in µg/mL; for Multiplicity factor (MF) with C11: C11 3 µM; for MIC90 of antimycotic combined with C11: C11 at constant 3 µM; for Multiplicity factor (MF) with C13: C13 3 µM; for MIC90 of antimycotic combined with C13: C13 at constant 3 µM; for Multiplicity factor (MF) with C15: C15 3 µM; for MIC90 of antimycotic combined with C15: C15 at constant 3 µM
[11] = C15 at constant 3 µM, dilutions in µg/mL

Row | Structure (SMILES) | MFC [1] [µg/mL] | MIC90 [1] [µg/mL] | Type of interaction with β-AE (by FICI) (C. glabrata 2853 [2]) | FICI (C. glabrata 2853 [2]) | Type of interaction with β-AE (by FICI) (C. glabrata 2586 [3]) | Type of interaction with β-AE (by FICI) (C. glabrata ATCC 90030 [4]) | FICI (C. glabrata ATCC 90030 [4]) | MFC (C. glabrata ATCC 90030 [5]) [µg/mL] | MIC90 (C. glabrata ATCC 90030 [5]) [µg/mL] | Multiplicity factor (MF) with C9 (C. glabrata ATCC 90030 [6]) | MIC90 of antimycotic combined with C9 (C. glabrata ATCC 90030 [6]; dilutions in µg/mL) | Multiplicity factor (MF) with C11 (C. glabrata ATCC 90030 [6]) | MIC90 of antimycotic combined with C11 (C. glabrata ATCC 90030 [6]; dilutions in µg/mL) | Multiplicity factor (MF) with C13 (C. glabrata ATCC 90030 [6]) | MIC90 of antimycotic combined with C13 (C. glabrata ATCC 90030 [6]; dilutions in µg/mL) | MFC [7] [µg/mL] | MIC90 [7] [µg/mL] | Multiplicity factor (MF) with C11 (C. glabrata 2586 [9]) | MIC90 of antimycotic combined with C11 (C. glabrata 2586 [9]; dilutions in µg/mL) | Multiplicity factor (MF) with C13 (C. glabrata 2586 [9]) | further results
1 | CC[C@H](C)C[C@H](C)CCCCCCCCC(=O)N[C@H]1C[C@@H](O)[C@@H](NCCN)NC(=O)[C@@H]2[C@@H](O)CCN2C(=O)[C@H]([C@H](O)CCN)NC(=O)[C@H]([C@H](O)[C@@H](O)c2ccc(O)cc2)NC(=O)[C@@H]2C[C@@H](O)CN2C(=O)[C@H]([C@@H](C)O)NC1=O [Caspofungin] | 0.06 (≈ 0.0549 µM) | 0.03 (≈ 0.0274 µM) | additive | 0.75 | additive | additive | 0.75 | 0.06 (≈ 0.0549 µM) | 0.06 (≈ 0.0549 µM) | 1 | 0.06 | 1 | 0.06 | 1 | 0.06 | 0.06 (≈ 0.0549 µM) | 0.03 (≈ 0.0274 µM) |  |  |  | MF with AABs [8]: 1
2 | CC[C@@H]([C@H](C)O)n1ncn(-c2ccc(N3CCN(c4ccc(OC[C@@H]5CO[C@@](Cn6cncn6)(c6ccc(F)cc6F)C5)cc4)CC3)cc2)c1=O [Posaconazole] | 1020 (≈ 1460 µM) | 512 (≈ 731 µM) | additive | 0.562 |  | additive | 1 | 1020 (≈ 1460 µM) | 256 (≈ 365 µM) | two-fold |  | 8 | 32 | 8 | 32 | 256 (≈ 365 µM) | 1 (≈ 1.43 µM) | 2 | 256 | 2 | Multiplicity factor (MF) with C9 (C. glabrata 2586 [9]): 1; Multiplicity factor (MF) with C9 (C. glabrata 2586 [9]; listed as posaconazole): not observed; MIC90 of antimycotic combined with C13 (C. glabrata 2586 [9]; dilutions in µg/mL): 256; Multiplicity factor (MF) with C15 (C. glabrata 2586 [9]): 1; Multiplicity factor (MF) with C15 (C. glabrata 2586 [9]; listed as posaconazole): not observed; Multiplicity factor (MF) with C9 (C. glabrata 2853 [10]): 8 (8); Multiplicity factor (MF) with C9 (C. glabrata 2853 [10]; listed as posaconazole): 8; MIC90 of antimycotic combined with C9 (C. glabrata 2853 [10]): 8 (8); Multiplicity factor (MF) with C11 (C. glabrata 2853 [10]): 4 (4); Multiplicity factor (MF) with C11 (C. glabrata 2853 [10]; listed as posaconazole): 4; MIC90 of antimycotic combined with C11 (C. glabrata 2853 [10]): 4 (4); Multiplicity factor (MF) with C13 (C. glabrata 2853 [10]): 4 (4); Multiplicity factor (MF) with C13 (C. glabrata 2853 [10]; listed as posaconazole): 4; MIC90 of antimycotic combined with C13 (C. glabrata 2853 [10]): 4 (4); Multiplicity factor (MF) with C15 (C. glabrata 2853 [10]): 256 (256); Multiplicity factor (MF) with C15 (C. glabrata 2853 [10]; listed as posaconazole): 256; MIC90 of antimycotic combined with C15 (C. glabrata 2853 [10]): 256 (256); FICI (C. glabrata 2586 [3]; combination with β-aescin): 1.002; FICI (C. glabrata ATCC 90030 [4]; listed as posaconazole): 1.0; Multiplicity factor (MF) with C15 (C. glabrata ATCC 90030 [6]): two-fold
3 | C[C@@H](c1ncncc1F)[C@](O)(Cn1cncn1)c1ccc(F)cc1F [Voriconazole] | 1020 (≈ 2930 µM) | 512 (≈ 1470 µM) |  | 2.5 | additive | additive | 1 | 1020 (≈ 2930 µM) | 512 (≈ 1470 µM) | 64 | 8 | 64 | 8 | 64 | 8 | 512 (≈ 1470 µM) | 2 (≈ 5.73 µM) | 64 | 8 | 64 | MIC90 of antimycotic combined with C9 (C. glabrata 2586 [9]; C9 at constant 3 µM, dilutions in µg/mL): 64; MIC90 of antimycotic combined with C13 (C. glabrata 2586 [9]; dilutions in µg/mL): 8; Multiplicity factor (MF) with C15 (C. glabrata 2586 [9]): 64; MIC90 of antimycotic combined with C15 (C. glabrata 2586 [9]; [11]): 8; Multiplicity factor (MF) with C9 (C. glabrata 2853 [10]): 1; Multiplicity factor (MF) with C9 (C. glabrata 2853 [10]; listed as voriconazole): did not alter the level of activity; MIC90 of antimycotic combined with C9 (C. glabrata 2853 [10]): 2; Multiplicity factor (MF) with C11 (C. glabrata 2853 [10]): 2; Multiplicity factor (MF) with C11 (C. glabrata 2853 [10]; listed as voriconazole): twice; MIC90 of antimycotic combined with C11 (C. glabrata 2853 [10]): 1; Multiplicity factor (MF) with C13 (C. glabrata 2853 [10]): 2; Multiplicity factor (MF) with C13 (C. glabrata 2853 [10]; listed as voriconazole): twice; MIC90 of antimycotic combined with C13 (C. glabrata 2853 [10]): 1; Multiplicity factor (MF) with C15 (C. glabrata 2853 [10]): 128; MIC90 of antimycotic combined with C15 (C. glabrata 2853 [10]): 256; FICI (C. glabrata ATCC 90030 [4]; listed as voriconazole): 1.0; Multiplicity factor (MF) with C15 (C. glabrata ATCC 90030 [6]): 64; MIC90 of antimycotic combined with C15 (C. glabrata ATCC 90030 [6]; [11]): 8
